Data published in patent US8455461B2, “Compositions containing a synergic mixture of polyols and xyloglucanes as phytosanitary and bio-fertilising products” (Elicityl, priority 2007, dated 2013).

What was measured:
[1] = test system: Cabernet-Sauvignon vine plants; experiment: Frost-resistance of young vine plants, Cabernet-Sauvignon (foliar spraying, cold stress, foliar necroses); type: in vivo
Method: (§1) Plants originating from different vine varieties: the Chardonnay and Cabernet-Sauvignon varieties are used. Each sample, composed of 5 to 21 plants, is treated by foliar spraying at different vegetative stages on the BBCH scale with a mixture containing the xyloglucan elicitor, heptasaccharide XFGol or heptamaloxyloglucan, in solution at variable doses combined or not combined with sorbitol; the spraying of 2.5 ml of solution per plant is carried out using a sprayer (deviation of +/−1%). After use of the elicitor, the plants were exposed to cold stress of variable intensity and duration. After exposure to the cold, the plants are placed in a climatic chamber at 20° C. with a 12-hour day/night alternation. The appearance of the leaves is observed 24 hours and 72 hours after removal from the cold. The effects of the cold are evaluated by observing the foliar necroses induced by frost and the plants are kept for several months in order to monitor their subsequent development. The results are expressed by the protection index c (%)=100−P; P, being the proportion of foliar necroses. The results are also expressed in gain: [formula]

Chardonnay vine plants = experiment: Frost-resistance of young vine plants, Chardonnay (foliar spraying, cold stress, foliar necroses); type: in vivo
Method: as §1

Compound: CC1OC(OC2C(OC3C(OCC4OC(OC(C(O)CO)C(O)C(O)CO)C(O)C(O)C4OC4OC(COC5OCC(O)C(O)C5O)C(O)C(O)C4O)OCC(O)C3O)OC(CO)C(O)C2O)C(O)C(O)C1O (stereo not drawn) [Elicitor, heptamaloxyloglucan]
- Gain % ([1]; Cabernet-Sauvignon second series, 500 nM elicitor, vs dry control): 200%
- If % average (protection index) ([1]; Cabernet-Sauvignon second series, all physiological stages combined, 500 nM elicitor): 60%
- If % average (protection index) (Chardonnay vine plants; all physiological stages combined, 5 nM elicitor): 40%
- Gain % (Chardonnay vine plants; all physiological stages combined, 5 nM elicitor, vs dry control): 0%

Compound: OC[C@@H](O)[C@@H](O)[C@H](O)[C@@H](O)CO [sorbitol]
- effect of sorbitol on frost protection ([1]; Cabernet-Sauvignon, 0.1% sorbitol, when the elicitor itself has no effect): without effect
- effect of sorbitol on frost protection (Chardonnay vine plants; 0.1% sorbitol, when the elicitor itself has no effect): without effect
